Molecules are shown by their SMILES.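 Test compounds were applied to cells in 96-well plates for 48 hours at 5 doses. TGI marks complete inhibition of growth.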

Common to all, as to experiment: growth of human tumour cells (NCI), 48 h
For experiment [1], the system named is OVCAR-4 ovarian.
For experiment [2], the system named is PC-3 prostate.
The test system of experiment [3] is HOP-62 NSCLC.
The subject of experiment [4] is T-47D breast.
Experiment [5] concerns NCI-H522 lung.
Experiment [6] concerns DU-145 prostate.
Experiment [7] deals with MDA-MB-435.
Experiment [8] deals with HCT-15 colon.
The test system of experiment [9] is UACC-62 melanoma.
Experiment [10] relates to MDA-MB-231 breast.
For experiment [11], the system named is SW-620 colon.
Experiment [12] relates to CCRF-CEM leukemia.
Experiment [13] relates to TK-10 renal.
In experiment [14] the test system is SN12C renal.
The subject of experiment [15] is MALME-3M melanoma.
Experiment [16] concerns LOX IMVI melanoma.
Experiment [17] relates to ACHN renal.
Experiment [18] relates to RXF 393 renal.
The test system of experiment [19] is NCI-H23 lung.
Experiment [20] has as its system SF-295 CNS.

`O=S(=O)(/N=C(\NO)Nc1ccc(Cl)cc1)C1CC=C(c2ccon2)S1` (stereo not given): the TGI in experiment [1] was above 100 µM; in experiment [2], above 100 µM; in experiment [3] it was above 100 µM; in experiment [4] it was above 100 µM; in experiment [5], 12.8 µM; in experiment [6] it was above 100 µM. For the same compound, the TGI in experiment [7] is above 100 µM; in experiment [8], above 100 µM; in experiment [9] it was above 100 µM; in experiment [10], above 100 µM; in experiment [11], above 100 µM; in experiment [12] it was 72.1 µM. In addition, the TGI in [13] was above 100 µM; in [14] it was 98.9 µM; in experiment [15], 43.2 µM; in [16], above 100 µM; in [17], above 100 µM; in experiment [18] it was 87.3 µM. Also, the TGI in [19] and in experiment [20] was above 100 µM throughout.
For `O=C1Nc2ccccc2/C1=C\c1c(Cl)nc2n1CCS2`, the TGI in experiment [1] was above 100 µM; in experiment [2] it was 80.4 µM; in [3], above 100 µM; in [4], 91 µM; in experiment [5], 40.5 µM; in experiment [6] it was above 100 µM. Also, the TGI in experiment [7] is 43.9 µM; in experiment [8], 64.5 µM; in [9], 32.2 µM; in experiment [10] it was 53.2 µM; in experiment [11] it was above 100 µM; in experiment [12], above 100 µM. The TGI in experiment [13] is 49.9 µM; in [14], above 100 µM; in experiment [15] it was 62.1 µM; in [16] it was above 100 µM; in experiment [17], above 100 µM; in experiment [18], 57.3 µM. For the same compound, the TGI in [19] worked out at 65.8 µM; in experiment [20], 99.6 µM.
In the case of `CN(C)Cc1cc(C(=O)/C=C/c2ccc(F)cc2)cc(CN(C)C)c1O`, the TGI is above 100 µM in experiment [1]; above 100 µM in experiment [2]; 58.5 µM in experiment [3]; 46.3 µM in experiment [4]; 31.7 µM in experiment [5]; above 100 µM in experiment [6]. For the same compound, the TGI in [7] was 38.9 µM; in [8], 30.3 µM; in [9], 8.98 µM; in [10], above 100 µM; in experiment [11] it was 75.5 µM; in experiment [12], 78 µM. The TGI was above 100 µM in experiment [13]; above 100 µM in experiment [14]; 36.5 µM in experiment [15]; 20.7 µM in [16]; 78.3 µM in experiment [17]; 46.9 µM in experiment [18]. The values for the TGI in experiment [19] and in experiment [20] were above 100 µM and 31.6 µM, respectively.
In the case of `COc1ccc(-c2cc(-c3ccccc3)nc3c2CC(=O)Nc2ccccc2-3)cc1OC`, the TGI is above 100 µM in experiment [1]; above 100 µM in experiment [2]; 18.2 µM in [3]; above 100 µM in experiment [4]; above 100 µM in experiment [5]; above 100 µM in experiment [6]. The TGI in [7] was above 100 µM; in experiment [8], above 100 µM; in [9] it was above 100 µM; in [10], 6.21 µM; in experiment [11] it was above 100 µM; in [12] it was above 100 µM. Further, the TGI was above 100 µM in experiment [13]; above 100 µM in experiment [14]; above 70.3 µM in [15]; above 100 µM in [16]; above 100 µM in [17]; above 46.3 µM in [18]. In addition, the TGI in experiment [19] and in experiment [20] was above 100 µM throughout.
On to `NC(N)=NS(=O)(=O)c1ccc(NC(=O)c2ccc3nc4ccccc4c(N)c3c2)cc1`, for which the TGI in experiment [1], in experiment [2], in experiment [3], in [4], in experiment [5] and in experiment [6] was above 100 µM throughout. Moreover, the TGI in experiment [7], in [8], in [9], in experiment [10], in [11] and in experiment [12] was above 100 µM in each case. Also, the TGI in [13], in experiment [14], in experiment [15], in experiment [16], in experiment [17] and in [18] was above 100 µM each time. In addition, the TGI in [19] and in experiment [20] was above 100 µM throughout.
In the case of `O=[p+]1c2ccccc2[nH]c2ccccc21`, the TGI in experiment [1], in experiment [2], in experiment [3], in experiment [4], in [5] and in experiment [6] was above 100 µM in each case. Further, the TGI in [7], in experiment [8], in experiment [9], in experiment [10], in experiment [11] and in experiment [12] was above 100 µM throughout. Besides, the TGI in experiment [13], in experiment [14], in experiment [15], in experiment [16], in experiment [17] and in experiment [18] was above 100 µM throughout. The TGI in experiment [19] and in experiment [20] was above 100 µM in each case.
Consider `N=C(N)SCc1ccc(N=C=S)cc1`, for which the TGI in [1] was 27.4 µM; in experiment [2], 30.1 µM; in experiment [3] it was 32.5 µM; in experiment [4], 34.9 µM; in experiment [5], 21.6 µM; in experiment [6], 29.5 µM. For the same compound, the TGI was 26 µM in [7]; 24.6 µM in experiment [8]; 23.7 µM in [9]; 20.1 µM in [10]; 29.1 µM in experiment [11]; above 100 µM in experiment [12]. The TGI in experiment [13] came out at 28.1 µM; in experiment [14], 28.5 µM; in [15] it was 27.4 µM; in experiment [16] it was 28 µM; in [17], 26.1 µM; in [18] it was 17.8 µM. For the same compound, the results for the TGI in experiment [19] and in experiment [20] were 27.5 µM and 31.2 µM, respectively.
For `C=CCn1c(-c2ccc(Cl)cc2Cl)csc1=Nc1c(C)n(C)n(-c2ccccc2)c1=O`, the TGI in experiment [1] amounted to 28.3 µM; in experiment [2] it was 20.6 µM; in experiment [3] it was 29.7 µM; in [4], 16.6 µM; in experiment [5] it was 29.6 µM; in [6] it was 27.3 µM. Further, the TGI in [7] came out at 25.2 µM; in experiment [8] it was 30 µM; in experiment [9] it was 22.5 µM; in [10] it was 30 µM; in experiment [11] it was 32.8 µM; in experiment [12], 38.1 µM. For the same compound, the TGI in experiment [13] is 25.7 µM; in experiment [14], 27.5 µM; in experiment [15], 31.4 µM; in experiment [16], 23.9 µM; in experiment [17], 27.7 µM; in experiment [18], 32.1 µM. For the same compound, the TGI was found to be 23.4 µM in experiment [19] and 21.2 µM in experiment [20].
On to `COc1ccc(N(C(=O)NCCO)c2ccccc2)cc1`, for which the TGI in experiment [1], in experiment [2], in [3], in [4], in [5] and in [6] was above 100 µM each time. Moreover, the TGI in experiment [7], in experiment [8], in experiment [9], in experiment [10], in experiment [11] and in experiment [12] was above 100 µM throughout. The TGI in [13], in [14], in experiment [15], in experiment [16], in experiment [17] and in experiment [18] was above 100 µM each time. Also, the TGI in experiment [19] and in experiment [20] was above 100 µM in each case.
Regarding `CC(C)(SCc1ccccc1)C(N)C(=O)O` (stereo not given), the TGI in [1], in experiment [2], in experiment [3], in experiment [4], in experiment [5] and in [6] was above 100 µM in each case. Also, the TGI in experiment [7], in [8], in experiment [9], in [10], in experiment [11] and in experiment [12] was above 100 µM in each case. Besides, the TGI in experiment [13], in experiment [14], in [15], in [16], in experiment [17] and in [18] was above 100 µM throughout. The TGI in [19] and in experiment [20] was above 100 µM each time.
For the compound `COC(=O)c1ccc(C)cc1CC1Cc2c(C)cccc2C1=O` (stereo not given), the TGI in [1] is above 91.9 µM; in experiment [2], above 34.6 µM; in experiment [3] it was above 53.4 µM; in experiment [4], above 100 µM; in experiment [5], 22.8 µM; in [6], above 81.9 µM. For the same compound, the TGI in experiment [7] is 4.38 µM; in [8], 12.7 µM; in experiment [9], 22 µM; in [10], 8.42 µM; in experiment [11], above 48.7 µM; in [12], 62.2 µM. In addition, the TGI in [13] is above 54.6 µM; in experiment [14], 28.2 µM; in [15], 45.1 µM; in [16], 32.2 µM; in experiment [17], above 94.3 µM; in experiment [18], 34.3 µM. Besides, the TGI in experiment [19] is above 46.6 µM; in experiment [20], above 52.8 µM.
